“And” between values parts separate entries of the source, which are not always exact repeats. Equal values may be shown once.
Assays:
GST = GST (Schistosoma japonicum, UniProt P08515); assay: Ligand observed NMR (1D and waterLOGSY) with GST alone; assay type: binding; conditions: compound 50 µM, GST 2.5 µM
From the text: Given that I942 seems to exert selective agonist properties against EPAC1, but not EPAC2, we next sought to validate whether our isolated ligands can interact with EPAC1 and EPAC2. Ligand observed nuclear magnetic resonance (NMR) is a valuable tool for the identification and validation of small molecule ligands. We therefore used one dimensional proton (1D) and water-ligand observed by gradient spectroscopy (waterLOGSY) NMR to confirm the ability of I942 and I178 to bind to the purified CNBs of EPAC1 and EPAC2, in comparison with the commercially available EPAC1 antagonist, ESI-09[32]. In order to assess ligand/CNB interaction, 1D and waterLOGSY experiments were performed on each compound (50 µM) in the presence or absence of 2.5 µM EPAC-CNB. In the absence of protein, each test compound produced a well-resolved 1D spectrum and a region of each spectrum was chosen to display distinctive spectral peaks originating from the ligand (Fig. 6). In the absence of protein, the corresponding waterLOGSY peaks were small, or absent, due to the negligible signal produced by saturation transfer from water to the freely tumbling small molecule. […] In waterLOGSY spectra, protein-mediated saturation transfer can only occur if the protein-ligand complex has a substantial lifetime. […]
(A) One dimensional proton (1D) and waterLOGSY (WL) spectra were performed on samples containing hit compound I942 (50 µM) in the absence and presence of EPAC1-CNB, EPAC2-CNB or GST alone, as indicated (2.5 µM). […] Interaction between compound and protein was assessed through comparison of the compound alone and protein-compound sample spectra. […]
All NMR spectra were recorded on a Bruker AVANCE IIIHD 600 spectrometer equipped with a TCI cryoprobe at 285 K. Test compounds were prepared in deuterated DMSO and diluted to given experimental concentrations in NMR buffer (20 mM Na2PO4, pH 7.0, 50 mM NaCl, 0.1% (w/v) NaN3, 5% (v/v) D2O) with a final DMSO concentration below 0.1%. […] One dimensional proton (1D) and waterLOGSY spectra were recorded for all compounds tested, using pulse sequences as previously described. […]

[1] = target: T1, EPAC2 (amino acids 280–993) (Mus musculus, UniProt Q9EQZ6); assay: In vitro GEF activity assay (MANT-GDP dissociation from Rap1), EPAC2; assay type: biochemical; conditions: for IC50: IC50, GEF Inhibition (with cAMP), 50 μM cAMP; for GEF Activation (no cAMP), AC50 / induced EPAC2 activity: absence of cAMP, N/A = inability to promote GEF activity of EPAC2
T1 construct: EPAC2 (amino acids 280–993); made in house; host or cells: bacteria
T1 sequence (Q9EQZ6 280-993 isoform Q9EQZ6-3): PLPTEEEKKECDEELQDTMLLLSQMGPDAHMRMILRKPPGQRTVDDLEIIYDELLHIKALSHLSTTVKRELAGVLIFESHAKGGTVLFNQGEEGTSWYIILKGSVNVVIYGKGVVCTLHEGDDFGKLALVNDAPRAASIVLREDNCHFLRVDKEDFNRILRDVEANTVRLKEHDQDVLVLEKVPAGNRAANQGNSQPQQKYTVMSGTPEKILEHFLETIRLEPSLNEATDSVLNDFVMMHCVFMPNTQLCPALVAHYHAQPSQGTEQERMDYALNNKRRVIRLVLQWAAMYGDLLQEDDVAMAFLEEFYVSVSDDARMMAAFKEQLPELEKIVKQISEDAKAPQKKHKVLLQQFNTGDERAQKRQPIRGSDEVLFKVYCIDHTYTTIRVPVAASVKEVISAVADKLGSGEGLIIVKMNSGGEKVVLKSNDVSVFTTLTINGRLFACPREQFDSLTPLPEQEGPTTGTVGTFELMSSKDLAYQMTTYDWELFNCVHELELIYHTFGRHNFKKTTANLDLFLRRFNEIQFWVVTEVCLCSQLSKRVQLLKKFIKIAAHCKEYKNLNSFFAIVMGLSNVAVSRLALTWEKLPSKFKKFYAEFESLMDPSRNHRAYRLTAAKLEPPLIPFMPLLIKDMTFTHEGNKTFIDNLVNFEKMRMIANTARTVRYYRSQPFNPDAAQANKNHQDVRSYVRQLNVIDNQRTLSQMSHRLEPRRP
Experimental: EPAC1 and EPAC2 in vitro GEF activities were calculated as previously described. Briefly, recombinant EPAC1 (amino acids 149–881) or EPAC2 (amino acids 280–993) were incubated at 100 nM with recombinant Rap1 (200 nM) preloaded with the fluorescent GDP analogue 2′/3′-O-(N-Methylanthraniloyl)guanosine 5-diphosphate (MANT-GDP) in the presence of 20 μM GDP and then the fluorescence intensity was measured at 360/450 nm (ex/em) over time. […] AC50 or IC50 values were determined from the plots of kobs against the concentration of the agonist and antagonist, respectively Table 1.

Sequence of GST (P08515 whole entry): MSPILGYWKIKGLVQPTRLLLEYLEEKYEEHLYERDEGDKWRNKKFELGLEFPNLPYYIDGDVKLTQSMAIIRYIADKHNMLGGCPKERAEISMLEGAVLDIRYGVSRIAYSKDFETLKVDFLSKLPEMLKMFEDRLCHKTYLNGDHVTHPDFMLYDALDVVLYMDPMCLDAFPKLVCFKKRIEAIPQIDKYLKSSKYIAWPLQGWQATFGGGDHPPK

Cc1ccc(S(=O)(=O)NC(=O)COc2ccc3ccccc3c2)c(C)c1 [I942, N-(2,4-dimethylbenzenesulfonyl)-2-(naphthalen-2-yloxy)acetamide]
NMR interaction with GST alone (GST): No peak broadening
IC50 [1]: 110 µM and ~110 µM
GEF Activation (no cAMP), AC50 / induced EPAC2 activity [1]: very weak
Kd ([1]; read-out: affinity for EPAC2 280–993, approximated): ~5 µM

O=C(COc1ccc2ccccc2c1)NS(=O)(=O)c1ccccc1 [I178, N-(benzenesulfonyl)-2-(naphthalen-2-yloxy)acetamide]
NMR interaction with GST alone (GST): No peak broadening
IC50 [1]: 250 µM and ~250 µM
GEF Activation (no cAMP), AC50 / induced EPAC2 activity [1]: very weak
